Data as given in ChEMBL document CHEMBL5104182, “Design and Synthesis of a 2-Amino-pyridine Derivative as a Potent CDK8 Inhibitor for Anti-colorectal Cancer Therapy” (J Med Chem, 2022).
Calls of active or inactive are those of the source. No cut-off for these calls is given here.

What was measured:
[1] = Toxicity in Balb/c mouse assessed as MPO level in serum at 1000 mg/kg, using gastric tube; type: organism-based; conditions: in vivo, po, route ig
[2] = Oral bioavailability in Sprague-Dawley rat at 10 mg/kg upto 24 hrs by HPLC analysis; type: ADME, organism-based; conditions: in vivo
[3] = AUC (0 to infinitive) in Sprague-Dawley rat at 2 mg/kg, iv upto 24 hrs by HPLC analysis; type: ADME, organism-based; parameters: time < 24 hrs, dose 2 mg/kg, route iv; conditions: in vivo
[4] = AUC (0 to infinitive) in Sprague-Dawley rat at 10 mg/kg, po upto 24 hrs by HPLC analysis; type: ADME, organism-based; parameters: dose 10 mg/kg, time < 24 hrs, route po; conditions: in vivo
[5] = Cmax in Sprague-Dawley rat at 2 mg/kg, iv upto 24 hrs by HPLC analysis; type: ADME, organism-based; parameters: dose 2 mg/kg, time < 24 hrs, route iv; conditions: in vivo
[6] = Cmax in Sprague-Dawley rat at 10 mg/kg, po upto 24 hrs by HPLC analysis; type: ADME, organism-based; parameters: time < 24 hrs, dose 10 mg/kg, route po; conditions: in vivo
[7] = MRT in Sprague-Dawley rat at 2 mg/kg, iv upto 24 hrs by HPLC analysis; type: ADME, organism-based; conditions: in vivo
[8] = Tmax in Sprague-Dawley rat at 10 mg/kg, po upto 24 hrs by HPLC analysis; type: ADME, organism-based; conditions: in vivo
[9] = Half life in Sprague-Dawley rat at 2 mg/kg, iv upto 24 hrs by HPLC analysis; type: ADME, organism-based; conditions: in vivo
[10] = Toxicity in ICR mouse assessed as lung damage at 1000 mg/kg, using gastric tube by H&E staining assay; type: organism-based; conditions: in vivo, po, route ig
[11] = Toxicity in ICR mouse assessed as spleen damage at 1000 mg/kg, using gastric tube by H&E staining assay; type: organism-based; conditions: in vivo, po, route ig
[12] = Toxicity in ICR mouse assessed as liver damage at 1000 mg/kg, using gastric tube by H&E staining assay; type: organism-based; conditions: in vivo, po, route ig
[13] = Toxicity in ICR mouse assessed as heart damage at 1000 mg/kg, using gastric tube by H&E staining assay; type: organism-based; conditions: in vivo, po, route ig
[14] = Toxicity in ICR mouse assessed as abnormal behavior at 1000 mg/kg, using gastric tube; type: organism-based; conditions: in vivo, po, route ig
CT26 [15] = assay: In vivo inhibition of CDK8 in mouse CT26 cells transplanted in […] mouse assessed as downregulation of beta-catenin in tumor at 10 to 40 mg/kg, po daily measured after 21 days; type: functional, organism-based; conditions: dose 10-40 mg/kg, time 21.0 day
[16] = biological target: T1, Cyclin-dependent kinase 8 (Homo sapiens, UniProt P49336); assay: Inhibition of CDK8 (unknown origin) assessed as inhibition rate
HCT-116 [17] = assay: Antiproliferative activity against human HCT-116 cells assessed as cell viability incubated for 48 hrs by MTT assay; type: functional
HT-29 = assay: Antiproliferative activity against human HT-29 cells assessed as cell viability incubated for 48 hrs by MTT assay; type: functional
SW480 = assay: Antiproliferative activity against human SW480 cells assessed as cell viability incubated for 48 hrs by MTT assay; type: functional
[18] = Cytotoxicity against human GES1 cells assessed as cell viability incubated for 48 hrs by MTT assay; type: toxicity, cell-based
[19] = biological target: Cyclin-dependent kinase 6 (Homo sapiens, UniProt Q00534); assay: Inhibition of CDK6 (unknown origin) assessed as inhibition rate
[20] = biological target: Cyclin-dependent kinase 7 (Homo sapiens, UniProt P50613); assay: Inhibition of CDK7 (unknown origin) assessed as inhibition rate
Homo sapiens = organism: Homo sapiens; assay: Selectivity ratio of IC50 for human CDK7 to IC50 for human CDK8
[21] = biological target: T1, Cyclin-dependent kinase 8; assay: Binding affinity to CDK8 in human HCT-116 cells by measuring competition with biotinylated (1-(4-((6-aminopyridin-3-yl)oxy)phenyl)-3-(3-(trifluoromethyl)-phenyl)urea hydrochloride); type: cell-based
[22] = biological target: T1, Cyclin-dependent kinase 8; assay: Inhibition of CDK8 in human HCT-116 cells assessed as inhibition of […] phosphorylation at Tyr701 by Western blot analysis; type: cell-based
[23] = biological target: T1, Cyclin-dependent kinase 8; assay: Binding affinity to CDK8-Flag (unknown origin) transfected in HEK293T cells; type: cell-based
HCT-116 [24] = assay: Decrease in Cyclin D1 expression in human HCT-116 cells at 1 to 4 uM incubated for 48 hrs by western blotting analysis; type: functional, cell-based; conditions: dose 1-4 µM
HCT-116 [25] = assay: Decrease in C-Myc expression in human HCT-116 cells at 1 to 4 uM incubated for 48 hrs by western blotting analysis; type: functional, cell-based; conditions: dose 1-4 µM
HCT-116 [26] = assay: Decrease in Lef expression in human HCT-116 cells at 1 to 4 uM incubated for 48 hrs by western blotting analysis; type: functional, cell-based; conditions: dose 1-4 µM
HCT-116 [27] = assay: Decrease in beta-catenin expression in human HCT-116 cells at 1 to 4 uM incubated for 12 hrs by western blotting analysis; type: functional, cell-based; conditions: dose 1-4 µM
HCT-116 [28] = assay: Decrease in Dvl2 expression in human HCT-116 cells at 1 to 4 uM incubated for 12 hrs by western blotting analysis; type: functional, cell-based; conditions: dose 1-4 µM
HCT-116 [29] = assay: Decrease in LRP6 expression in human HCT-116 cells at 1 to 4 uM incubated for 12 hrs by western blotting analysis; type: functional, cell-based; conditions: dose 1-4 µM
HCT-116 [30] = assay: Decrease in WNT-3alpha expression in human HCT-116 cells at 1 to 4 uM incubated for 12hrs by western blotting analysis; type: functional, cell-based; conditions: dose 1-4 µM
HCT-116 [31] = assay: Decrease in beta-catenin/TCF/Lef combination expression in human HCT-116 cells at 1 to 4 uM incubated for 24 hrs by western blotting analysis; type: functional, cell-based; conditions: dose 1-4 µM
HCT-116 [32] = assay: Induction of cell cycle arrest in human HCT-116 cells assessed as increase in cells at G1 phase measured after 48 hrs by flow cytometry; type: functional, cell-based
HCT-116 [33] = assay: Induction of cell cycle arrest in human HCT-116 cells assessed as increase in cells at G2/M phase measured after 48 hrs by flow cytometry; type: functional, cell-based
HCT-116 [34] = assay: Induction of cell cycle arrest in human HCT-116 cells assessed as increase in cells at S phase measured after 48 hrs by flow cytometry; type: functional, cell-based
HCT-116 [35] = assay: Induction of cell cycle arrest in human HCT-116 cells assessed as decrease in CDK6 level incubated for 24 hrs by Western blot analysis; type: functional, cell-based
HCT-116 [36] = assay: Induction of cell cycle arrest in human HCT-116 cells assessed as increase in E2F1 level incubated for 24 hrs by Western blot analysis; type: functional, cell-based
HCT-116 [37] = assay: Antiproliferative activity against sorafenib-resistant human HCT-116 cells assessed as cell viability incubated for 48 hrs by MTT assay; type: functional
HCT-116 [38] = assay: Potency index, ratio of Sorafenib IC50 to test compound IC50 for antiproliferative activity against human HCT-116 cells incubated for 48 hrs by MTT assay; type: functional
CT26 [39] = assay: Anticancer activity against mouse CT26 cells transplanted in […] mouse assessed as reduction in tumor growth at 10 to 40 mg/kg, po daily measured after 21 days; type: functional, organism-based; conditions: dose 10-40 mg/kg, time 21.0 day
CT26 [40] = assay: In vivo inhibition of CDK8 in mouse CT26 cells transplanted in […] mouse assessed as downregulation of c-Myc in tumor at 10 to 40 mg/kg, po daily measured after 21 days; type: functional, organism-based; conditions: dose 10-40 mg/kg, time 21.0 day
CT26 [41] = assay: In vivo inhibition of CDK8 in mouse CT26 cells transplanted in […] mouse assessed as upregulation of E2F1 in tumor at 10 to 40 mg/kg, po daily measured after 21 days; type: functional, organism-based; conditions: dose 10-40 mg/kg, time 21.0 day
[42] = biological target: T1, Cyclin-dependent kinase 8; conditions: dose 200.0 nM

T1 sequence (P49336 whole entry): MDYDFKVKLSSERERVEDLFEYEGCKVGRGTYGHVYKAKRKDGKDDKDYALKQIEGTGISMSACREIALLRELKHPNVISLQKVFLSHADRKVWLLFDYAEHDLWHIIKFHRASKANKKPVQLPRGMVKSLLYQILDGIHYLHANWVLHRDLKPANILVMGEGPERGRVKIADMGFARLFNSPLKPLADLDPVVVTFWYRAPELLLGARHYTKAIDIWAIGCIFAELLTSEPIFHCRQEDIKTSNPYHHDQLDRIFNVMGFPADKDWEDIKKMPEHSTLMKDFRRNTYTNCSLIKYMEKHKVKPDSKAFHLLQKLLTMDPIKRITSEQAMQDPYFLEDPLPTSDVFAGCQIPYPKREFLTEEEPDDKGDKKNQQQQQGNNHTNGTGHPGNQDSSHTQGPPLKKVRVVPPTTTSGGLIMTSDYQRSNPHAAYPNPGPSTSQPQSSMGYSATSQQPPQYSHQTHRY
Chain of Cyclin-dependent kinase 6 (Q00534 whole entry): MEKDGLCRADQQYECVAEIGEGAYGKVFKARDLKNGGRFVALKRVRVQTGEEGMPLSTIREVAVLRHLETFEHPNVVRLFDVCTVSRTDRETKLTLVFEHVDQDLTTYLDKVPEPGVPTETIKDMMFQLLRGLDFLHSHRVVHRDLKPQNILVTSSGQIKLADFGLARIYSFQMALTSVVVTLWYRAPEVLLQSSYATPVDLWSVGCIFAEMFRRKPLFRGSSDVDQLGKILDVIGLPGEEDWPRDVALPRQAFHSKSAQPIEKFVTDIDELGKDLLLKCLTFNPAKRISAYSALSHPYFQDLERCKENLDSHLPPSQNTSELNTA
Chain of Cyclin-dependent kinase 7 (P50613 whole entry): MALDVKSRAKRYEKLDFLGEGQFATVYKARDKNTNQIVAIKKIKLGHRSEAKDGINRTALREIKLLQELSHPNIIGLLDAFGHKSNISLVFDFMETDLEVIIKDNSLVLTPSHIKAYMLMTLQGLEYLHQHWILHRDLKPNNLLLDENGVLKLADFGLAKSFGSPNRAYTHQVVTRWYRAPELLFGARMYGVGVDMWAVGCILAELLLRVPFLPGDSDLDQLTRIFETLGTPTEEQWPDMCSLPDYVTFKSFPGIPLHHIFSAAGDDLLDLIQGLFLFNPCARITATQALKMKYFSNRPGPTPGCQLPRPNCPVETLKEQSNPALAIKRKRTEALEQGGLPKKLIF

bioavailability [2]: 31.7% | AUC(0-inf) [3]: 382 ng·h/mL | AUC(0-inf) [4]: 665 ng·h/mL | Cmax [5]: 318 ng/mL | Cmax [6]: 453 ng/mL | MRT [7]: 54 min | Tmax [8]: 48 min | half-life [9]: 30 min | IC50 [16]: 46.5 nM | GI50 (HCT-116 [17]): 1200 nM | GI50 (HT-29): 700 nM | GI50 (SW480): 2400 nM | IC50 [19]: 251 nM | IC50 [20]: 99.6 nM | Ratio IC50 (Homo sapiens): 2 | Activity [21]: Active | inhibition [22]: Active | Activity [23]: Active | GI50 (HCT-116 [37]): 17500 nM | inhibition [42]: 73.6%
Compound: Nc1ccc(Oc2ccc(NC(=O)Nc3cccc(C(F)(F)F)c3)cc2)cn1
Activity [1]: Non-Toxic | Activity [10]: Non-Toxic | Activity [11]: Non-Toxic | Activity [12]: Non-Toxic | Activity [13]: Non-Toxic | Activity [14]: Non-Toxic | Activity (CT26 [15]): Active | GI50 at 48 h [18]: 62700 nM | Activity (HCT-116 [24]): Active | Activity (HCT-116 [25]): Active | Activity (HCT-116 [26]): Active | Activity (HCT-116 [27]): Active | Activity (HCT-116 [28]): Active | Activity (HCT-116 [29]): Active | Activity (HCT-116 [30]): Active | Activity (HCT-116 [31]): Active | Activity (HCT-116 [32]): Active | Activity (HCT-116 [33]): Active | Activity (HCT-116 [34]): Active | Activity (HCT-116 [35]): Active | Activity (HCT-116 [36]): Active | Ratio (HCT-116 [38]): 3.6 | Activity (CT26 [39]): Active | Activity (CT26 [40]): Active | Activity (CT26 [41]): Active
